# US11753408B2, “Compounds and method for blocking transmission of malarial parasite” (The United States of America, as represented by the …, priority 2016, dated 2023)
# Read-outs that look alike come from different tables or passages of the source.
# Key:
# Solubility at pH 7.4 = type: physicochemical
# [1] = tested on: Stage III-V gametocytes (blood stage P. falciparum parasites); experiment: In vitro drug activity on gametocytes (AlamarBlue viability assay); type: cell-based, Plasmodium falciparum; conditions: for EC50: read-out: Gametocyte EC50
# Experimental: Cell culture. Asexual parasites of P. falciparum strain 3D7 were cultured as described previously [Trager W, et al., Journal of Parasitology 2005, 91: 484-486], Stage III-V gametocytes were selected and enriched with 3-day treatment with 50 mM N-acetylglucosamine (NAG) and the following Percoll density gradient centrifugation after gametocyte production [Tanaka T Q, et al., Molecular and Biochemical Parasitology, 2011, 111: 160-163], Gametocytes of HB3 and Dd2 strains were produced and then set up for assay in a similar process. HepG2 cells (ATCC, cat. no. 77400) were cultured in 175-cm^2 tissue culture flasks with 30 ml growth medium at 37° C. in a 5% CO2 humidified atmosphere. Growth medium was made with Dulbecco's Modified Eagle Medium with 10% fetal bovine serum (FBS). Growth medium was replaced every other day and cells were passed at 75% confluence.
# Compound screening experiments were performed as previously described [Tanaka T Q et al., Molecular and Biochemical Parasitology, 2013, 3188: 20-25], Briefly, 2.5 μl/well incomplete medium was dispensed into each well of 1,536-well plates using the Multidrop Combi followed by 23 nl compound transferring using the NX-TR Pintool (WAKO Scientific Solutions, San Diego, Calif.). 2.5 μl/well of gametocytes was dispensed with a seeding density of 20,000 cells/well using the Multidrop Combi. The assay plates were incubated for 72 h at 37° C. with 5% CO2. After addition of 5 μl/well of 2× AlamarBlue dye (Life Technologies, cat. no. DALI 100), the plates were incubated for 24 h at 37° C. with 5% CO2 and were read in a fluorescence detection mode (Ex=525 nm, Em=598 nm) on a ViewLux plate reader (PerkinElmer).
# Stage III-V gametocytes (blood stage P. falciparum parasites) were enriched with treatment with 50 mM N-acetylglucosamine (NAG) and Percoll density gradient centrifugation as described previously^1. Briefly, 2.5 μl/well incomplete medium was dispensed into each well of 1,536-well plates using the Multidrop Combi followed by 23 nl compound transfer using the NX-TR Pintool (WAKO Scientific Solutions, San Diego, Calif.). Then, 2.5 μl/well of gametocytes was dispensed with a seeding density of 20,000 cells/well using the Multidrop Combi. The assay plates were incubated for 72 h at 37° C. with 5% CO2. After addition of 5 μl/well of 2× AlamarBlue dye (Life Technologies, cat. no. DALI 100), the plates were incubated for 24 h at 37° C. with 5% CO2 and then were read in a fluorescence detection mode (Ex=525 nm, Em=598 nm) on a ViewLux plate reader (PerkinElmer).
# [2] = tested on: Asexual parasites of P. falciparum strain 3D7; experiment: In vitro drug activity on asexual parasites (SYBR Green assay); type: cell-based, Plasmodium falciparum
# Procedure, shortened: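 SYBR Green I fluorescence (ex 490, em 520 nm) was read after freeze-thaw lysis and 30 min staining at room temperature. Before that, drug-treated cultures (0.5% parasitemia, 2% hematocrit, DMSO ≤0.5%) were incubated 72 h, in duplicate.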
# mTOR = mTOR (Homo sapiens, UniProt P42345); experiment: mTOR activity (no method described); type: biochemical
# [3] = Microsomal stability (rat); type: in vitro ADME; conditions: rat microsomes
# [4] = P. falciparum stage III-V gametocytes, 72 h incubation, AlamarBlue
# [5] = P. falciparum 3D7 asexual parasites, 72 h, SYBR Green
Compound,Sol @ pH 7.4 (ug/mL) (Solubility at pH 7.4),"EC50 [1, 4]","EC50 [2, 5]",EC50 [1],mTOR (mTOR),EC50 [2],Microsomal Stability (rat) T1/2 [3],Sol @ pH 7.4 (Solubility at pH 7.4),Gametocyte EC50 [1]
CN(C)Cc1ccc(-c2ccc3ncc4ccc(=O)n(-c5ccc6c(c5)CC(=O)N6)c4c3c2)cc1 [Compound 350],>68.0 ug/mL,1 µM,0.546 µM,–,–,–,–,–,–
Cn1c(=O)n(-c2ccc(N3CCNCC3)c(C#N)c2)c2c3cc(-c4ccc(F)cc4)ccc3ncc21 [Compound 414],–,–,–,0.0387 µM,0.5842 µM,0.0142 µM,–,–,–
CS(=O)(=O)c1ccc(-n2c(=O)ccc3cnc4ccc(-c5ccc(F)cc5)cc4c32)cc1 [Compound 29],<1.0 ug/mL,0.0885 µM,0.0198 µM,–,–,–,>30.0 min,–,–
CN(C)Cc1ccc(-c2ccc3ncc4ccc(=O)n(-c5ccc6c(c5)CN(CC(=O)O)C6=O)c4c3c2)cc1 [Compound 355],>77.0 ug/mL,28.8 µM,2.02 µM,–,–,–,>30.0 min,–,–
O=C(c1ccc(-n2c(=O)ccc3cnc4ccc(-c5ccccc5)cc4c32)cc1)N1CCOCC1 [Compound 125],–,–,–,0.0398 µM,0.5061 µM,0.00808 µM,–,–,–
NC1(c2ccc(-c3ccc4ncc5ccc(=O)n(-c6ccc(C(=O)N7CCOCC7)cc6)c5c4c3)cc2)CC1 [Compound 178],–,–,–,0.918 µM,5.312 µM,0.445 µM,–,–,–
Cn1c(=O)n(-c2cccc(C#N)c2)c2c3cc(-c4ccc(C#N)cc4)ccc3ncc21 [Compound 442],–,–,–,1.99 µM,100 µM,0.449 µM,–,–,–
CN1Cc2cc(-n3c(=O)ccc4cnc5ccc(-c6ccc(Cl)cc6)cc5c43)ccc2C1=O [Compound 341],<1.0 ug/mL,0.083 µM,0.0691 µM,–,–,–,12.4 min,–,–
N#Cc1ccc(-n2c(=O)ccc3cnc4ccc(-c5ccc(N)nc5)cc4c32)cc1 [Compound 22],<1.0 ug/mL,0.115 µM,0.0346 µM,–,–,–,>30.0 min,–,–
Cc1cc(N2CCNCC2)c(C#N)cc1-n1c(=O)n(C)c2cnc3ccc(-c4ccc(F)cc4)cc3c21 [Compound 416],–,–,–,0.0216 µM,0.9306 µM,0.0396 µM,–,–,–
Cc1cc(N2CCNCC2)c(C#N)cc1-n1c(=O)n(C)c2cnc3ccc(-c4ccc(Cl)cc4)cc3c21 [Compound 415],–,–,–,0.0186 µM,15.87 µM,0.0214 µM,–,–,–
O=C1Cc2ccc(-n3c(=O)ccc4cnc5ccc(-c6ccc(Cl)cc6)cc5c43)cc2N1 [Compound 376],0 ug/mL,0.199 µM,0.115 µM,–,–,–,–,–,–
CCNS(=O)(=O)c1ccc(-n2c(=O)ccc3cnc4ccc(-c5ccc(Cl)cc5)cc4c32)cc1 [Compound 41],<1.0 ug/mL,0.0894 µM,0.0231 µM,–,–,–,6.3 min,–,–
O=C1c2ccc(-n3c(=O)ccc4cnc5ccc(-c6ccc(Cl)cc6)cc5c43)cc2CN1C1CC1 [Compound 353],0 ug/mL,2.51 µM,0.589 µM,–,–,–,>30.0 min,–,–
CCN(CC)S(=O)(=O)c1ccc(-n2c(=O)ccc3cnc4ccc(-c5ccc(Cl)cc5)cc4c32)cc1 [Compound 39],<1.0 ug/mL,0.426 µM,0.414 µM,–,–,–,1.7 min,–,–
Cc1c(C#N)cccc1-n1c(=O)ccc2cnc3ccc(-c4ccc(CN(C)C)cc4)cc3c21 [Compound 10],>66 ug/mL,0.469 µM,0.0722 µM,–,–,–,18 min,–,–
Nc1ccc(-c2ccc3ncc4ccc(=O)n(-c5ccc(S(N)(=O)=O)cc5)c4c3c2)cn1 [Compound 78],<1.0 ug/mL,0.0116 µM,0.00612 µM,–,–,–,>30.0 min,–,–
COc1ccc(C#N)cc1-n1c(=O)ccc2cnc3ccc(-c4ccc(F)cc4)cc3c21 [Compound 13],0 ug/mL,0.135 µM,0.0804 µM,–,–,–,–,–,–

Compound,Sol @ pH 7.4 (ug/mL) (Solubility at pH 7.4),"EC50 [1, 4]","EC50 [2, 5]",EC50 [1],mTOR (mTOR),EC50 [2],Microsomal Stability (rat) T1/2 [3],Sol @ pH 7.4 (Solubility at pH 7.4),Gametocyte EC50 [1]
Cc1ccc(C#N)cc1-n1c(=O)ccc2cnc3ccc(-c4ccc(CN(C)C)cc4)cc3c21 [Compound 7],>66.00 ug/mL,0.0251 µM,0.0131 µM,–,–,–,–,–,–
CN(C)CCc1ccc(-c2ccc3ncc4ccc(=O)n(-c5ccc(C(=O)N6CCOCC6)cc5)c4c3c2)cc1 [Compound 186],–,–,–,0.573 µM,12.44 µM,0.207 µM,–,–,–
CN(C)Cc1ccc(-c2ccc3ncc4ccc(=O)n(-c5ccc([S+](C)[O-])cc5)c4c3c2)cc1 (stereo not shown) [Compound 54],>69.00 ug/mL,0.393 µM,0.146 µM,–,–,–,51.7 min,–,–
Nc1ccc(-c2ccc3ncc4ccc(=O)n(-c5ccc6c(c5)CCC(=O)N6)c4c3c2)cn1 [Compound 391],10 ug/mL,0.0563 µM,0.0123 µM,–,–,–,>30.00 min,–,–
CS(=O)(=O)c1ccc(-n2c(=O)ccc3cnc4ccc(-c5ccc(Cl)c(O)c5)cc4c32)cc1 [Compound 26],1.2 ug/mL,0.178 µM,0.0378 µM,–,–,–,>30.0 min,–,–
O=c1ccc2cnc3ccc(-c4ccc(Cl)cc4)cc3c2n1-c1ccc(S(=O)(=O)NC2CC2)cc1 [Compound 46],<1.0 ug/mL,0.26 µM,0.0625 µM,–,–,–,8.3 min,–,–
CN1C(=O)CCc2cc(-n3c(=O)ccc4cnc5ccc(-c6ccc(Cl)cc6)cc5c43)ccc21 [Compound 359],0.06 ug/mL,0.13 µM,0.0234 µM,–,–,–,14.9 min,–,–
Cn1c(=O)n(-c2cccc(C#N)c2)c2c3cc(-c4ccc5[nH]cnc5c4)ccc3ncc21 [Compound 445],–,–,–,0.735 µM,0.6303 µM,0.269 µM,–,–,–
N#Cc1ccc(-n2c(=O)[nH]c3cnc4ccc(-c5ccc(Cl)cc5)cc4c32)cc1 [Compound 434],–,–,–,–,–,45 µM,11.3 min,<1.0 ug/mL,Inactive
COC(=O)CN1Cc2cc(-n3c(=O)ccc4cnc5ccc(-c6ccc(Cl)cc6)cc5c43)ccc2C1=O [Compound 345],–,3.83 µM,–,–,–,–,<1.0 min,–,–
O=C1NCCc2cc(-n3c(=O)ccc4cnc5ccc(-c6ccc(Cl)cc6)cc5c43)ccc21 [Compound 367],0 ug/mL,0.105 µM,0.029 µM,–,–,–,12.8 min,–,–
CN(C)Cc1ccc(-c2ccc3ncc4ccc(=O)n(-c5ccc(S(C)(=O)=O)c(N6CCOCC6)c5)c4c3c2)cc1 [Compound 62],>84.00 ug/mL,1.32 µM,0.558 µM,–,–,–,>30.00 min,–,–
O=C(c1ccc(-n2c(=O)ccc3cnc4ccc(-c5ccc(Cl)cc5)cc4c32)c(Cl)c1)N1CCOCC1 [Compound 159],–,–,–,0.321 µM,3.523 µM,0.0916 µM,–,–,–
O=C1CCc2cc(-n3c(=O)ccc4cnc5ccc(-c6ccc(Cl)cc6)cc5c43)ccc2N1 [Compound 356],<0.10 ug/mL,0.0655 µM,0.025 µM,–,–,–,>30.00 min,–,–
NC(=O)c1cccc(-n2c(=O)ccc3cnc4ccc(-c5ccc(N)nc5)cc4c32)c1 [Compound 333],–,–,–,0.411 µM,0.2135 µM,0.239 µM,–,–,–
N#Cc1cc(-n2c(=O)ccc3cnc4ccc(-c5ccc(Cl)cc5)cc4c32)ccc1N1CCOCC1 [Compound 6],0.02 ug/mL,0.102 µM,–,–,–,–,–,–,–
CC1CC1NC(=O)c1ccc(-n2c(=O)ccc3cnc4ccc(-c5ccc(CN(C)C)cc5)cc4c32)cc1 (stereo not shown) [Compound 177],–,–,–,0.902 µM,9.038 µM,–,–,>74.00 ug/mL,–
